Experiments:
[1] = Solubility of 600 ppm Reb X stock solution in citric buffer; format: physicochemical; conditions: 0.06% (w/v) in citric buffer at up to 52° C. for ca. 15-20 minutes
Method: The isosweetness levels of Reb X in a citric buffer system at room temperature and 4° C. were evaluated. A 600 ppm stock solution of Reb X was prepared by adding a mass of 0.15 g into a 250 mL sample of citric buffer (CB) solution. The mixture was moderately stirred at warmer temperature (up to ca. 52° C.) on a heated stirrer for about 15-20 minutes and then cooled. The citric buffer was prepared by adding 1.6 g citric acid, 0.6 g potassium citrate and 0.253 g sodium benzoate in 1 L of carbon-treated water. The pH of the mixture was 3.1. […] The controls of 0.75%, 2%, 4%, 6%, 8%, 10% and 15% sucrose equivalence (SE) were also prepared by adding sugar (w/v) into the CB. The mixtures were moderately stirred and then ready for the isosweetness determination test. The Reb X samples were then evaluated against the control sugar samples in citric buffer at room temperature (RT) and 4° C. (in an ice bath) by one experienced taster for an isosweetness determination using the controlled, multi-sip and swallow taste method.
Despite the stronger mouthfeel or texture effect (syrupy, thicker) at ca. 15% sucrose, it was difficult to determine the isosweetness levels for at least 400 ppm of Reb X due to its thinner mouthfeel but broader and more impact sweetness temporal profile as well as its significant sweet lingering.

panel of trained tasters = experiment: Reb X sweetness vs. concentration, matched to sucrose references; format: in vivo, human; conditions: for Reb X Concentration (ppm) matching sucrose reference: Reb X 98% purity, water at room temperature
Method: 2.5%, 5.0%, 7.5%, and 10.0% sucrose solutions were prepared in neutral (7.0 pH) and acidified water (3.2 pH) as reference samples. Solutions containing Reb X (98% purity) were prepared to match the sweetness of each sucrose reference in neutral and acidified water. Samples were tasted and verified by a panel of trained tasters in water at room temperature.

[2] = Sweetness Equivalent (SE) 10.0%

Question: Which Solubility and appearance [1] does the source give for `C=C1C[C@@]23CCC4[C@](C)(C(=O)OC5OC(CO)C(O)C(OC6OC(CO)C(O)C(O)C6O)C5OC5OC(CO)C(O)C(O)C5O)CCC[C@@]4(C)[C@@H]2CCC1(OC1OC(CO)C(O)C(OC2OC(CO)C(O)C(O)C2O)C1OC1OC(CO)C(O)C(O)C1O)C3` (stereo partly drawn) [Reb X, (13-[2-O-β-D-glucopyranosyl-3-O-β-D-glucopyranosyl-β-D-glucopyranosyl)oxy] ent kaur-16-en-19-oic acid-[2-O-β-D-glucopyranosyl-3-O-β-D-glycopyranosyl) ester] here?
Answer: very soluble and clear (colorless)

Question: And the “Sweetness Factor (SF)” value (panel of trained tasters; Sweetness Equivalent (SE) 2.5%)?
Answer: 521

Question: What about the “Reb X Concentration (ppm) matching sucrose reference” value (“Reb X Concentration” for short) (panel of trained tasters; Sweetness Equivalent (SE) 2.5%) of the same molecule?
Answer: 48 ppm

Question: And the “Sweetness Factor (SF)” value (panel of trained tasters; Sweetness Equivalent (SE) 5.0%)?
Answer: 380

Question: What about the “Reb X Concentration” value (panel of trained tasters; Sweetness Equivalent (SE) 5.0%) of the same molecule?
Answer: 132 ppm

Question: What about the “Sweetness Factor (SF)” value (panel of trained tasters; Sweetness Equivalent (SE) 7.5%) of the same molecule?
Answer: 295

Question: What about the “Reb X Concentration” value (panel of trained tasters; Sweetness Equivalent (SE) 7.5%) of the same molecule?
Answer: 254 ppm

Question: And the “Sweetness Factor (SF)” value (panel of trained tasters; [2])?
Answer: 237

Question: And the “Reb X Concentration” value (panel of trained tasters; [2])?
Answer: 422 ppm
